Assay: xn = mol fraction of the nth substance listed
Details: 100 kPa, Liquid; for viscosity: Cone and plate viscometry; for mass density: Vibrating tube method

CCn1cc[n+](C)c1.O=S(=O)([N-]S(=O)(=O)C(F)(F)F)C(F)(F)F + CCCCCC[n+]1ccn(C)c1.O=S(=O)([N-]S(=O)(=O)C(F)(F)F)C(F)(F)F
Details	mass density [kg/m3]	viscosity [mPa·s]
278.15 K, x2 = 0	–	80
278.15 K, x2 = 0.15	–	89
278.15 K, x2 = 0.3	–	95
278.15 K, x2 = 0.5	–	120
278.15 K, x2 = 0.7	–	153
278.15 K, x2 = 0.85	–	181
283.15 K, x2 = 0	1534.1	63
283.15 K, x2 = 0.15	1507.1	70
283.15 K, x2 = 0.3	1481.8	74
283.15 K, x2 = 0.5	1451	92
283.15 K, x2 = 0.7	1422.9	116
283.15 K, x2 = 0.85	1403.6	135
288.15 K, x2 = 0	1529	50
288.15 K, x2 = 0.15	1502.1	56
288.15 K, x2 = 0.3	1476.9	58
288.15 K, x2 = 0.5	1446.3	72
288.15 K, x2 = 0.7	1418.2	89
288.15 K, x2 = 0.85	1399	102
293.15 K, x2 = 0	1523.9	–
293.15 K, x2 = 0.15	1497.1	–
293.15 K, x2 = 0.3	1472	–
293.15 K, x2 = 0.5	1441.5	58
293.15 K, x2 = 0.7	1413.5	70
293.15 K, x2 = 0.85	1394.4	79
295.15 K, x2 = 0	1521.9	–
295.15 K, x2 = 0.15	1495.1	–
295.15 K, x2 = 0.3	1470.1	–
295.15 K, x2 = 0.5	1439.6	–
295.15 K, x2 = 0.7	1411.6	–
295.15 K, x2 = 0.85	1392.5	–
298.15 K, x2 = 0	1518.9	–
298.15 K, x2 = 0.15	1492.2	–
298.15 K, x2 = 0.3	1467.2	–
298.15 K, x2 = 0.5	1436.7	–
298.15 K, x2 = 0.7	1408.8	57
298.15 K, x2 = 0.85	1389.7	63
303.15 K, x2 = 0	1513.9	–
303.15 K, x2 = 0.15	1487.2	–
303.15 K, x2 = 0.3	1462.3	–
303.15 K, x2 = 0.5	1431.9	–
303.15 K, x2 = 0.7	1404.1	–
303.15 K, x2 = 0.85	1385.1	51
308.15 K, x2 = 0	1508.9	–
308.15 K, x2 = 0.15	1482.3	–
308.15 K, x2 = 0.3	1457.5	–
308.15 K, x2 = 0.5	1427.2	–
308.15 K, x2 = 0.7	1399.5	–
308.15 K, x2 = 0.85	1380.5	–
313.15 K, x2 = 0	1503.9	–
313.15 K, x2 = 0.15	1477.4	–
313.15 K, x2 = 0.3	1452.7	–
313.15 K, x2 = 0.5	1422.5	–
313.15 K, x2 = 0.7	1394.8	–
313.15 K, x2 = 0.85	1375.9	–
318.15 K, x2 = 0	1499	–
318.15 K, x2 = 0.15	1472.5	–
318.15 K, x2 = 0.3	1447.9	–
318.15 K, x2 = 0.5	1417.8	–
318.15 K, x2 = 0.7	1390.1	–
318.15 K, x2 = 0.85	1371.3	–
323.15 K, x2 = 0	1494.1	–
323.15 K, x2 = 0.15	1467.7	–
323.15 K, x2 = 0.3	1443.1	–
323.15 K, x2 = 0.5	1413.1	–
323.15 K, x2 = 0.7	1385.5	–
323.15 K, x2 = 0.85	1366.8	–
328.15 K, x2 = 0	1489.1	–
328.15 K, x2 = 0.15	1462.8	–
328.15 K, x2 = 0.3	1438.3	–
328.15 K, x2 = 0.5	1408.4	–
328.15 K, x2 = 0.7	1380.9	–
328.15 K, x2 = 0.85	1362.2	–
333.15 K, x2 = 0	1484.2	–
333.15 K, x2 = 0.15	1458	–
333.15 K, x2 = 0.3	1433.5	–
333.15 K, x2 = 0.5	1403.7	–
333.15 K, x2 = 0.7	1376.2	–
333.15 K, x2 = 0.85	1357.7	–
338.15 K, x2 = 0	1479.3	–
338.15 K, x2 = 0.15	1453.2	–
338.15 K, x2 = 0.3	1428.8	–
338.15 K, x2 = 0.5	1399	–
338.15 K, x2 = 0.7	1371.6	–
338.15 K, x2 = 0.85	1353.2	–
343.15 K, x2 = 0	1474.4	–
343.15 K, x2 = 0.15	1448.4	–
343.15 K, x2 = 0.3	1424.1	–
343.15 K, x2 = 0.5	1394.4	–
343.15 K, x2 = 0.7	1367	–
343.15 K, x2 = 0.85	1348.6	–
348.15 K, x2 = 0	1469.6	–
348.15 K, x2 = 0.15	1443.6	–
348.15 K, x2 = 0.3	1419.4	–
348.15 K, x2 = 0.5	1389.8	–
348.15 K, x2 = 0.7	1362.3	–
348.15 K, x2 = 0.85	1344.1	–
353.15 K, x2 = 0	1464.7	–
353.15 K, x2 = 0.15	1438.8	–
353.15 K, x2 = 0.3	1414.7	–
353.15 K, x2 = 0.5	1385.2	–
353.15 K, x2 = 0.7	1357.7	–
353.15 K, x2 = 0.85	1339.7	–

CCCCCCn1cc[n+](C)c1C.O=[N+]([O-])c1cn[n-]c1 [1-hexyl-2,3-dimethylimidazolium 4-nitropyrazolide] + CCCCCCCCCCCCCC[P+](CCCCCC)(CCCCCC)CCCCCC.O=S(=O)([N-]S(=O)(=O)C(F)(F)F)C(F)(F)F
Details	mass density, x1 = 0.25 [kg/m3]	mass density, x1 = 0.501 [kg/m3]	mass density, x1 = 0.749 [kg/m3]	viscosity, x1 = 0.098 [mPa·s]	viscosity, x1 = 0.303 [mPa·s]	viscosity, x1 = 0.5 [mPa·s]	viscosity, x1 = 0.7 [mPa·s]	viscosity, x1 = 0.898 [mPa·s]
278.15 K	–	–	–	1280	1562	2212	3692	7584
283.15 K	1081.8	1090.2	1104.2	871	1040	1418	2223	4009
288.15 K	1078.2	1086.7	1100.5	606	707	933	1385	2241
293.15 K	1074.6	1083.2	1097	434	495	636	897	1330
295.15 K	1073.2	1081.7	1095.7	–	–	–	–	–
298.15 K	1071.1	1079.7	1093.6	319	357	447	605	830
303.15 K	1067.5	1076.2	1090.3	239	264	324	422	545
308.15 K	1063.9	1072.7	1086.9	184	200	240	304	373
313.15 K	1060.4	1069.3	1083.5	144	154	182	223	263
318.15 K	1057	1065.9	1080.2	115	121	142	169	192
323.15 K	1053.5	1062.6	1077	93	97	112	131	144
328.15 K	1050	1059.2	1073.7	–	–	–	–	–
333.15 K	1046.5	1055.8	1070.5	–	–	–	–	–
338.15 K	1043	1052.4	1067.2	–	–	–	–	–
343.15 K	1039.5	1049	1064	–	–	–	–	–
348.15 K	1036.1	1045.7	1060.7	–	–	–	–	–
353.15 K	1032.6	1042.3	1057.5	–	–	–	–	–

CCCCCCn1cc[n+](C)c1.N#Cc1ccc[n-]1 [1-hexyl-3-methylimidazolium 2-cyanopyrrolide] + CCCCCCCCCCCCCC[P+](CCCCCC)(CCCCCC)CCCCCC.O=S(=O)([N-]S(=O)(=O)C(F)(F)F)C(F)(F)F
viscosity [mPa·s]
Details	278.15 K	283.15 K	288.15 K	293.15 K	298.15 K	303.15 K	308.15 K	313.15 K	318.15 K	323.15 K
x1 = 0.1	1166	806	568	410	303	229	176	138	110	89
x1 = 0.2	1261	867	605	435	320	241	185	145	115	93
x1 = 0.3	1258	851	589	419	307	230	176	137	109	87
x1 = 0.399	1299	876	602	426	310	231	177	137	109	88
x1 = 0.499	1275	846	575	404	292	216	164	127	100	81
x1 = 0.6	1379	905	612	423	304	224	169	130	102	82
x1 = 0.7	1410	910	603	416	295	216	162	125	97	78
x1 = 0.8	1397	877	571	387	271	196	146	112	87	69
x1 = 0.9	1461	893	566	374	257	183	135	101	79	62
x1 = 1	1540	902	553	355	239	167	122	91	70	55

Reference: the NIST ThermoML archive (doi:10.1021/acs.jced.7b00221)
